Test results taken from ChEMBL document CHEMBL1201862, “PubChem BioAssay data set” (2004).
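Compound exposure: 48 hours, 5 concentrations, 96-well plates. The concentration for 50% growth inhibition is given as GI50.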 Active and inactive are the calls of the source. Cut-off read from the data, not from the text of the source: active = GI50 up to about 1.1 µM and inactive = higher.

Key:
Assay in all cases: NCI anticancer screen, dose series, 48 h
UACC-62 = tested on: UACC-62
SK-MEL-5 = tested on: SK-MEL-5
OVCAR-3 = tested on: OVCAR-3
NCI-H226 = tested on: NCI-H226
MDA-MB-435 = tested on: MDA-MB-435
SN12C = tested on: SN12C
HCT-15 = tested on: HCT-15
HOP-62 = tested on: HOP-62
EKVX = tested on: EKVX
SW-620 = tested on: SW-620
UACC-257 = tested on: UACC-257
HCC 2998 = tested on: HCC 2998
MOLT-4 = tested on: MOLT-4
RPMI-8226 = tested on: RPMI-8226
SF-268 = tested on: SF-268
NCI-H460 = tested on: NCI-H460
A498 = tested on: A498
LOX IMVI = tested on: LOX IMVI
SK-MEL-2 = tested on: SK-MEL-2

Row | Structure (SMILES) | GI50 (UACC-62) | GI50 (SK-MEL-5) | GI50 (OVCAR-3) | GI50 (NCI-H226) | GI50 (MDA-MB-435) | GI50 (SN12C) | GI50 (HCT-15) [µM] | GI50 (HOP-62) | GI50 (EKVX) | GI50 (SW-620) | GI50 (UACC-257) | GI50 (HCC 2998) | GI50 (MOLT-4) | GI50 (RPMI-8226) | GI50 (SF-268) | GI50 (NCI-H460) | GI50 (A498) | GI50 (LOX IMVI) | GI50 (SK-MEL-2)
1 | COC(=O)[C@H](Cc1ccc(OC(C)(C)C)cc1)N[C@H](C)C(=O)N[C@@H](Cc1ccccc1)C(=O)OCc1ccccc1 | > 100 µM (inactive) | > 100 µM (inactive) | 86.3 µM (inactive) | 25.8 µM (inactive) | 82.8 µM (inactive) | 26.9 µM (inactive) | > 100 | > 100 µM (inactive) | > 100 µM (inactive) | > 100 µM (inactive) | > 100 µM (inactive) | > 100 µM (inactive) | 20 µM (inactive) | 37.8 µM (inactive) | > 100 µM (inactive) | > 100 µM (inactive) | > 100 µM (inactive) | 34.4 µM (inactive) | 
2 | Cc1cc(-c2[nH]c(C(=O)O)cc2I)on1 | 53.8 µM (inactive) | > 100 µM (inactive) | > 100 µM (inactive) |  | > 100 µM (inactive) |  | > 100 | 26.9 µM (inactive) | 51.6 µM (inactive) | > 100 µM (inactive) | > 100 µM (inactive) | > 100 µM (inactive) | > 100 µM (inactive) | > 100 µM (inactive) | 68.7 µM (inactive) | > 100 µM (inactive) | > 100 µM (inactive) |  | > 100 µM (inactive)
3 | CC(C)N(C(=O)C12C3C4C1C1C2C3C41C(=O)O)C(C)C (stereo not drawn) | > 100 µM (inactive) | > 100 µM (inactive) | > 100 µM (inactive) | > 100 µM (inactive) |  | > 100 µM (inactive) | > 100 | > 100 µM (inactive) | > 100 µM (inactive) | > 100 µM (inactive) | > 100 µM (inactive) | > 100 µM (inactive) | > 100 µM (inactive) | > 100 µM (inactive) | > 100 µM (inactive) | > 100 µM (inactive) | > 100 µM (inactive) | > 100 µM (inactive) | > 100 µM (inactive)
4 | O=C(Cn1c2c(c3ccccc31)CCCC2)NC1CCCCC1 | 56.4 µM (inactive) | > 100 µM (inactive) | 96.4 µM (inactive) |  | > 100 µM (inactive) | > 100 µM (inactive) | > 100 | 81.8 µM (inactive) | > 100 µM (inactive) | > 100 µM (inactive) | > 100 µM (inactive) | > 100 µM (inactive) | > 10 µM (inactive) | > 100 µM (inactive) | 77.3 µM (inactive) | > 100 µM (inactive) | > 100 µM (inactive) | 68.5 µM (inactive) | > 100 µM (inactive)
5 | COC(=O)c1ccc(NCC2=CC(=O)C=CC2=O)cc1 | 14.6 µM (inactive) | 18.5 µM (inactive) | 1.79 µM (inactive) | 17.9 µM (inactive) | 11.3 µM (inactive) |  | 12.5 |  | 10.6 µM (inactive) | 3.75 µM (inactive) | 12.4 µM (inactive) | 21.6 µM (inactive) | 3.05 µM (inactive) | 2.59 µM (inactive) | 13.7 µM (inactive) |  | 14.5 µM (inactive) | 5 µM (inactive) | 15.3 µM (inactive)
6 | NNc1ncc2c(n1)-c1ccccc1OC2 | 63.7 µM (inactive) | 76.9 µM (inactive) | 22.2 µM (inactive) | 75.2 µM (inactive) | 70.5 µM (inactive) | 71.6 µM (inactive) | 29.9 | 35.6 µM (inactive) | 49.4 µM (inactive) | 69.7 µM (inactive) | > 100 µM (inactive) |  | 22.5 µM (inactive) | 38.2 µM (inactive) | 41.6 µM (inactive) | 32.3 µM (inactive) |  | 58.9 µM (inactive) | > 100 µM (inactive)
7 | C/C=C\C(CC(=O)NCCC1CN(C(=O)OCc2ccccc2)c2ccccc21)CC(=O)OC (stereo not drawn) | > 100 µM (inactive) | > 100 µM (inactive) | > 100 µM (inactive) |  | > 100 µM (inactive) |  | > 100 | > 100 µM (inactive) | > 100 µM (inactive) | > 100 µM (inactive) | > 100 µM (inactive) | > 100 µM (inactive) | > 100 µM (inactive) | 79.4 µM (inactive) | > 100 µM (inactive) | 86.5 µM (inactive) | > 100 µM (inactive) |  | > 100 µM (inactive)
8 | CSc1nc(CO)c(CO)n1C | > 100 µM (inactive) | > 100 µM (inactive) | > 100 µM (inactive) | > 100 µM (inactive) |  | > 100 µM (inactive) | > 100 | > 100 µM (inactive) | > 100 µM (inactive) | > 100 µM (inactive) | > 100 µM (inactive) | > 100 µM (inactive) | > 100 µM (inactive) | > 100 µM (inactive) | > 100 µM (inactive) | > 100 µM (inactive) | > 100 µM (inactive) | > 100 µM (inactive) | > 100 µM (inactive)
9 | NC1=NN(c2ccccc2)C(=O)C1/C(=N\NC(=O)c1cc2ccccc2cc1O)C(=O)Nc1ccc(Cl)c(Cl)c1 (stereo not drawn) | 17.7 µM (inactive) | 29.5 µM (inactive) | 5.57 µM (inactive) | 64.9 µM (inactive) |  | 35.6 µM (inactive) | 13.6 | 65.2 µM (inactive) | 14.4 µM (inactive) | 33.1 µM (inactive) | 29.7 µM (inactive) | 43 µM (inactive) | 22.9 µM (inactive) | 26 µM (inactive) | 22.9 µM (inactive) | 31.3 µM (inactive) | 49.8 µM (inactive) | 24.5 µM (inactive) | 55.7 µM (inactive)
10 | C/C(=N\Nc1nc2ccccc2o1)c1cc(C)ncn1 | 0.0867 µM (active) | 0.0381 µM (active) | < 0.0223 µM (active) | < 0.0142 µM (active) | 0.319 µM (active) | < 0.0205 µM (active) | 0.043 | 0.11 µM (active) | < 0.0153 µM (active) | < 0.0201 µM (active) | < 0.0211 µM (active) | 11 µM (inactive) | < 0.01 µM (active) | 0.0306 µM (active) | 0.031 µM (active) | 0.0455 µM (active) | > 100 µM (inactive) |  | 1.38 µM (inactive)
11 | COC(=O)C1=C(c2ccc3c(c2)OCO3)O[C@H](c2ccc3c(c2)OCO3)[C@H]1COC(C)=O | 38.6 µM (inactive) | 24.5 µM (inactive) | 55.6 µM (inactive) | 39 µM (inactive) |  | 45.2 µM (inactive) | 53.1 | 58.5 µM (inactive) | 59 µM (inactive) | > 100 µM (inactive) | 55.2 µM (inactive) | 35.7 µM (inactive) | 35.2 µM (inactive) | 60.4 µM (inactive) | 87.5 µM (inactive) | 63.5 µM (inactive) | 24.6 µM (inactive) | 48.4 µM (inactive) | 63 µM (inactive)
12 | COc1ccccc1NS(=O)(=O)c1ccc2ncn(NS(=O)(=O)c3ccc(Cl)cc3)c(=O)c2c1 | 39.1 µM (inactive) |  | > 100 µM (inactive) | > 100 µM (inactive) | > 100 µM (inactive) | > 100 µM (inactive) | > 100 | > 100 µM (inactive) | > 100 µM (inactive) | > 100 µM (inactive) | > 100 µM (inactive) | > 100 µM (inactive) | > 100 µM (inactive) | 26.9 µM (inactive) | > 100 µM (inactive) | > 100 µM (inactive) |  | > 100 µM (inactive) | 45.2 µM (inactive)
